Test results: patent US12152008B2, “Cyclopentaimidazolones for the treatment of cancer” (The Broad Institute, Inc., priority 2018, dated 2024)

Columns and labels:
Assay type in all cases: cell-based
OV-90 = experiment: Cell line viability screen, IC50 (CellTiter-Glo 3D); conditions: OV90 cell line
Method: (§1) Compounds were tested on patient-derived tumor organoids. Such organoids retain the three-dimensional structure of the tissue providing conditions that are more representative of in vivo behavior. Such organoids are described by Boj, Sylvia, et al., Cell 160: 324 (2015), hereby incorporated by reference in its entirety. Briefly, cultures of primary and metastatic pancreatic tumor specimens as patient-derived xenografts, 3D tumor organoids, and patient-derived cell lines were produced including a cohort of 21 patient-derived xenografts and 67 organoid cultures from primary and metastatic pancreatic tumor specimens. The functional dependencies of compounds in these patient-derived samples were measured on a 3D organoid and its matched 2D patient-derived cell lines. Conditions were optimized for performing high-throughput compound screening of 3D organoids, including suspension culture with Matrigel in 384-well plates, viability assessment with CellTiter-Glo 3D. […] FIG. 2A illustrates the dose dependent responses of an enantioenriched sample of Compound E1 synthesized using an enantio-purified sample of E1 in the (R,R)-configuration (70% ee) (e.g., E1(R,R)), an enantioenriched sample of E1 (“E1(S,S)”), and racemic mixtures of E1 on NCIH2405 cells (“E1”).
(§2) Table 1 gives the IC50 values (μM) of compounds having the structure of formula (I) (including E1(S,S) and E1(Rac) in patient-derived organoids and several cell lines. Compounds E1-E12 were synthesized as described above as racemates (i.e., E1(Rac)-R12(Rac), and E1(S,S) and E1(R,R) were synthesized using the (S,S)-5 reagent or (R,R)-5 reagent, respectively, as described above.

PaTu 8902 = experiment: as above; conditions: PaTu 8902 cell line
Method: as §1, §2

BxPC-3 = experiment: as above; conditions: BxPC3 cell line
Method: as §1, §2

NCIH2405 cells = experiment: as above; conditions: read-out: IC50 NCIH 2405
Method: as §1, §2

[1] = system: PF0202 patient-derived organoid; experiment: Patient-derived organoid viability screen, IC50; conditions: read-out: IC50 PF 0202
Method: as §1, §2

[2] = system: PF0172_T2 patient-derived organoid; experiment: Patient-derived organoid viability screen, IC50; conditions: read-out: IC50 PF 0172_T2
Method: as §1, §2

[3] = system: PF0039 patient-derived organoid; experiment: Patient-derived organoid viability screen, IC50; conditions: read-out: IC50 PF 0039
Method: as §1, §2

PF0071 organoids = experiment: PF0071 sensitivity screen (organoid dose response); design: key: Active: the analog typically with the lower IC50 value was identified as “active”; Inactive: the analog with the higher IC50 value was identified as “inactive.”; conditions: optically pure enantiomers
Method: as §1
E1(Rac), E5(Rac), and E8(Rac) were synthesized as racemic mixtures (i.e., without a chiral catalyst) and separated into six optically pure compounds.
With the absolute stereochemistry identified, the correlation between specific isomer and activity was determined for PF0071 organoids. Table 2 compares the activities of each set of racemates that were measured as compared to the designations illustrated in FIG. 2B.
The response to dose of several compounds (including a linkered analog) on PF0071 organoids were run. Enantiomers of E1, E5, and E8 were tested and compared to results with a linked compound synthesized as a racemic mixture as described above (identified in FIG. 3 as “Linked E1(Rac)”) having the structure: […]

[4] = system: patient derived organoids and cell lines; experiment: Organoid and cell line screen, panel (FIG. 1); conditions: organoids PF0039, PF0071, PF0172-T2, PF0202, cell lines PaTu 8902, BxPC-3, NCIH2405, OV-90
Method: as §1

`CCOC1C=CC2C1N(CC(C)C)C(=O)N2c1ccccc1` (racemic) [E4(Rac)] showed an IC50 (OV-90) of 76.9 µM, an IC50 (PaTu 8902) greater than 100 µM and an IC50 (BxPC-3) of 96.4 µM. For the same compound, the IC50 (NCIH2405 cells) was 14.3 µM, the IC50 [1] was 40.2 µM and the IC50 [2] was 3.4 µM. It also gave an IC50 [3] of 25.8 µM.

`CO[C@H]1CC[C@H]2[C@@H]1N(CC(C)C)C(=O)N2c1ccccc1` (stereo in doubt) was tested, and the “Activity (active or inactive)” value (PF0071 organoids) was “Inactive”.

In the case of `COC1CCC2C1N(CC(C)C)C(=O)N2c1ccccc1` (racemic) [E5(Rac)], the IC50 (OV-90) is reported as 83.3 µM, the IC50 (PaTu 8902) is reported as greater than 100 µM and the IC50 (BxPC-3) is reported as 64.4 µM. For the same compound, the IC50 (NCIH2405 cells) was 4.11 µM, the IC50 [1] was 16.5 µM and the IC50 [2] was 1.16 µM. It also gave an IC50 [3] of 7.26 µM.

In the case of `COC1C=CC2C1N(CC(C)C)C(=O)N2c1ccc(Cl)cc1` (racemic) [E8(Rac)], the IC50 (OV-90) is reported as 30.7 µM, the IC50 (PaTu 8902) is reported as 33.9 µM and the IC50 (BxPC-3) is reported as 17.3 µM. For the same compound, the IC50 (NCIH2405 cells) was 2.58 µM, the IC50 [1] was 27.9 µM and the IC50 [2] was 2.15 µM. The IC50 [3] was 8.19 µM.

In the case of `CO[C@@H]1C=C[C@@H]2[C@H]1N(CC(C)C)C(=O)N2c1ccccc1` (stereo in doubt), the “Activity (active or inactive)” value (PF0071 organoids) is reported as “Active”.

`COC1C=CC2C1N(CC(C)C)C(=O)N2c1ccc(F)cc1` (racemic) [E11(Rac)] gave an IC50 (OV-90) of 93.6 µM, an IC50 (PaTu 8902) greater than 100 µM and an IC50 (BxPC-3) greater than 100 µM. It also gave an IC50 (NCIH2405 cells) of 10.2 µM, an IC50 [1] of 49.5 µM and an IC50 [2] of 4.08 µM. It also gave an IC50 [3] of 28.2 µM.

`COC1C=CC2C1N(CC(C)C)C(=O)N2c1ccc(C)cc1` (racemic) [E12(Rac)] gave an IC50 (OV-90) of 85.9 µM, an IC50 (PaTu 8902) greater than 100 µM and an IC50 (BxPC-3) greater than 100 µM. It also gave an IC50 (NCIH2405 cells) of 2.04 µM, an IC50 [1] of 51.4 µM and an IC50 [2] of 1.21 µM. It also gave an IC50 [3] of 7.42 µM.

For `COC1C=CC2C1N(C)C(=O)N2c1ccccc1` (racemic) [E3(Rac)], the IC50 (OV-90) was greater than 100 µM, the IC50 (PaTu 8902) was greater than 100 µM and the IC50 (BxPC-3) was greater than 100 µM. The IC50 (NCIH2405 cells) was greater than 100 µM, the IC50 [1] was greater than 100 µM and the IC50 [2] was 85.8 µM. For the same compound, the IC50 [3] was greater than 100 µM.

`COC1C=CC2C1N(CC(C)C)C(=O)N2Cc1ccccc1` (racemic) [E6(Rac)] gave an IC50 (OV-90) of 96.4 µM, an IC50 (PaTu 8902) greater than 100 µM and an IC50 (BxPC-3) greater than 100 µM. The IC50 (NCIH2405 cells) was greater than 100 µM, the IC50 [1] was 65.3 µM and the IC50 [2] was 17.4 µM. The IC50 [3] was 40.7 µM.

`CC(C)CN1C(=O)N(c2ccccc2)C2C=CC(O)C21` (racemic) [E2(Rac)] was tested, and the IC50 (OV-90) was greater than 100 µM, the IC50 (PaTu 8902) was greater than 100 µM and the IC50 (BxPC-3) was greater than 100 µM. For the same compound, the IC50 (NCIH2405 cells) was greater than 100 µM, the IC50 [1] was greater than 100 µM and the IC50 [2] was 4.05 µM. The IC50 [3] was 31.7 µM.

In the case of `COC1C=CC2C1N(CC(C)C)C(=O)N2c1ccccc1` (racemic) [Compound E1], the IC50 (OV-90) is reported as greater than 100 µM, the IC50 (PaTu 8902) is reported as greater than 100 µM and the IC50 (BxPC-3) is reported as greater than 100 µM. For the same compound, the IC50 (NCIH2405 cells) was 7.41 µM, the IC50 [1] was 55.4 µM and the IC50 [2] was 3.41 µM. The IC50 [3] was 22.3 µM and the “Effect on viability across panel” value [4] was “dose-dependent effect on only a subset of organoids”.

`COC1C=CC2C1N(CC(C)C)C(=O)N2c1cccc(F)c1` (racemic) [E10(Rac)] gave an IC50 (OV-90) of 83.9 µM, an IC50 (PaTu 8902) greater than 100 µM and an IC50 (BxPC-3) of 66.6 µM. It also gave an IC50 (NCIH2405 cells) of 3.44 µM, an IC50 [1] of 36.9 µM and an IC50 [2] of 2.22 µM. The IC50 [3] was 8.14 µM.

In the case of `COC1C=CC2C1N(CC(C)C)C(=O)N2c1ccc(C#N)cc1` (racemic) [E7(Rac)], the IC50 (OV-90) is reported as greater than 100 µM, the IC50 (PaTu 8902) is reported as 75.1 µM and the IC50 (BxPC-3) is reported as greater than 100 µM. It also gave an IC50 (NCIH2405 cells) greater than 100 µM, an IC50 [1] of no less than 100 µM and an IC50 [2] greater than 100 µM. For the same compound, the IC50 [3] was greater than 100 µM.

In the case of `CO[C@@H]1C=C[C@@H]2[C@H]1N(CC(C)C)C(=O)N2c1ccc(Cl)cc1` (stereo in doubt), the “Activity (active or inactive)” value (PF0071 organoids) is reported as “Active”.

`COc1ccc(N2C(=O)N(CC(C)C)C3C(OC)C=CC32)cc1` (racemic) [E9(Rac)] was tested, and the IC50 (OV-90) was 65.5 µM, the IC50 (PaTu 8902) was 76.8 µM and the IC50 (BxPC-3) was 56.4 µM. For the same compound, the IC50 (NCIH2405 cells) was 58.8 µM, the IC50 [1] was 47.1 µM and the IC50 [2] was 88.6 µM. The IC50 [3] was 43.5 µM.

In the case of `CO[C@H]1C=C[C@H]2[C@@H]1N(CC(C)C)C(=O)N2c1ccccc1` (stereo in doubt), the “Activity (active or inactive)” value (PF0071 organoids) is reported as “Inactive”.

`CO[C@@H]1CC[C@@H]2[C@H]1N(CC(C)C)C(=O)N2c1ccccc1` (stereo in doubt) was tested, and the “Activity (active or inactive)” value (PF0071 organoids) was “Active”.

In the case of `CO[C@H]1C=C[C@H]2[C@@H]1N(CC(C)C)C(=O)N2c1ccc(Cl)cc1` (stereo in doubt), the “Activity (active or inactive)” value (PF0071 organoids) is reported as “Inactive”.
